Source: ChEMBL document CHEMBL1949607, “p-Terphenyl and diterpenoid metabolites from endophytic Aspergillus sp. YXf3” (J Nat Prod, 2012)
pIC50: −log10 of the molar value.

Test: Inhibition of viral neuraminidase after 20 mins by fluorescence assay

SMILES	pIC50
COc1cc(-c2ccc(O)cc2)c(OC)c(O)c1C1=CC(=O)OC1CC(=O)O (stereo unspecified) [TERPHENOLIDE]	5.24
CO[C@]12OC[C@@H](O)c3c(C)ccc(c31)C1=C(C2=O)C(C)(C)CCC1 (racemic)	< 4.52
COc1cc(-c2ccc(O)cc2)c(OC)c(O)c1-c1ccc(O)c(O)c1	5.04
COc1cc2oc3c(OC)c(-c4ccc(O)cc4)cc(OC)c3c2cc1OC	< 4.52
CCOC(=O)C1=C[C@@H](OC(CC)CC)[C@H](NC(C)=O)[C@@H](N)C1 [OSELTAMIVIR]	6.85
COc1c(-c2ccccc2)cc(O)c(-c2ccc(O)cc2)c1O	< 4.52
C=Cc1c(C)ccc2c1C(=O)[C@H](O)[C@H]1C(C)(C)CC[C@@H](O)[C@]21C [ASPERGILOID C]	< 4.52
COc1c(-c2ccccc2)cc(OC)c2c1oc1cc(O)c(O)cc12	5.04
COc1ccc(-c2cc(OC)c3c(oc4cc(O)c(O)cc43)c2OC)cc1 [CANDIDUSIN C]	< 4.52
COc1cc(-c2ccc(O)cc2)c(OC)c(O)c1-c1ccc(O)cc1 [TERPHENYLLIN]	< 4.52
COc1c(-c2ccc(O)cc2)cc(OC)c2c1oc1cc(O)c(O)cc12 [CANDIDUSIN A]	< 4.52
C=C[C@@]1(C)CC[C@H]2C(=C[C@H](O)[C@H]3C(C)(C)CC[C@@H](O)[C@]23C)[C@H]1O (relative stereo)	< 4.52
CO[C@@H]1CO[C@]2(OC)C(=O)C3=C(CCCC3(C)C)c3ccc(C)c1c32 (racemic)	< 4.52
COc1c(-c2ccc(O)cc2)cc(O)c(-c2ccc(O)cc2)c1O	< 4.52
COc1cc(-c2ccccc2)c(OC)c(O)c1-c1ccc(O)c(O)c1	< 4.52
COc1cc(-c2ccccc2)c(OC)c(O)c1-c1ccc(O)cc1	5.36
